In US20240002375A1, “2-(INDAZOL-5-YL)-6-(PIPERIDIN-4-YL)-1,7-NAPHTHYRIDINE DERIVATIVES AND RELATED COMPOUNDS AS MODULATORS FOR SPLICING NUCLEIC ACIDS AND FOR THE TRE” (REMIX THERAPEUTICS INC., priority 2020, published 2024):

Tests used:
Format in all cases: cell-based
HTT CJ mRNA = assay: Gene panel canonical junction qPCR splicing assay, HTT; conditions: Table 4, read-out: HTT IC50 (decrease in CJ mRNA levels)
Summary of the method: (§1)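 A673 or K562 cells treated with compound; canonical-junction mRNA measured by RT-qPCR with junction-spanning primer/probe sets, normalized to GAPDH, GUSB or PPIA and DMSO (2^−ΔΔCt). IC50 for CJ decrease from 4-parameter logistic fit of percentage response.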

HTT mRNA = assay: Splicing assay (RT-qPCR) of HTT mRNA alternative junction (AJ) and canonical junction (CJ); conditions: A673 or K562 cells, 24 hours; for IC50: decrease in CJ mRNA, read-out: HTT CJ IC50; for AC50: increase in AJ mRNA, read-out: HTT AJ AC50
Summary of the method: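 A673 (adherent, 24 h pre-plating) or K562 cells treated 24 h at 37 °C with an 11-point 3-fold dilution series, top 10 uM, DMSO ≤0.25%. Lysates analysed by one-step RT-qPCR for HTT canonical (CJ) and alternative-exon (AJ) junctions, normalised to PPIA (A673) or GAPDH/GUSB (K562).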

SMN2 CJ mRNA = assay: Gene panel canonical junction qPCR splicing assay, SMN2; conditions: Table 4, read-out: SMN2 IC50 (decrease in CJ mRNA levels)
Summary of the method: as §1

Target C CJ mRNA = assay: Gene panel canonical junction qPCR splicing assay, Target C; conditions: Table 4, read-out: Target C IC50 (decrease in CJ mRNA levels)
Summary of the method: as §1

| IC50 (HTT CJ mRNA) | IC50 (HTT mRNA) | IC50 (SMN2 CJ mRNA) | IC50 (Target C CJ mRNA) | SMILES | AC50 (HTT mRNA) |
| --- | --- | --- | --- | --- | --- |
| 1000 to 10000 nM | 1000 to 10000 nM | < 100 nM | 1000 to 10000 nM | Cn1cc2c(O)c(-c3ncc4nc(C5CCNCC5)ccc4n3)ccc2n1 [Compound 108, 2-methyl-5-[6-(piperidin-4-yl)pyrido[3,2-d]pyrimidin-2-yl]indazol-4-ol] | 1000 to 10000 nM |
| 1000 to 10000 nM | 1000 to 10000 nM | 1000 to 10000 nM | 1000 to 10000 nM | COc1cc2nc(C)oc2cc1-c1ccc2nc(N3CCC(NC(C)(C)C)C3)ccc2n1 (stereo not drawn) [Compound 177, N-tert-butyl-1-[6-(5-methoxy-2-methyl-1,3-benzoxazol-6-yl)-1,5-naphthyridin-2-yl]pyrrolidin-3-amine] | 1000 to 10000 nM |
| > 10000 nM | > 10000 nM | > 10000 nM | > 10000 nM | Cc1cc(=O)c2cc(O)c(-c3ccc4nc(N5CCC(NC(C)(C)C)C5)ccc4n3)cc2o1 (stereo not drawn) [Compound 174] | > 10000 nM |
| > 10000 nM | > 10000 nM | 100 to 1000 nM | > 10000 nM | Cn1cc2cc(-c3cc4ccc(N5CCC(NC(C)(C)C)C5)nc4cn3)c(O)cc2n1 (stereo not drawn) [Compound 218, 5-{2-[3-(tert-butylamino)pyrrolidin-1-yl]-1,7-naphthyridin-6-yl}-2-methylindazol-6-ol] | > 10000 nM |
| < 100 nM | < 100 nM | < 100 nM | 100 to 1000 nM | Cn1cc2cc(-c3ccc4nc(N5CC6(CNC6)C5)ccc4n3)c(O)cc2n1 [Compound 124, 5-(6-[2,6-diazaspiro[3.3]heptan-2-yl]-1,5-naphthyridin-2-yl)-2-methylindazol-6-ol] | 100 to 1000 nM |
| < 100 nM | < 100 nM | < 100 nM | 100 to 1000 nM | Cc1nc2cc(O)c(-c3ccc4nc(N5CC[C@@H](NC6CC6)C5)ccc4n3)cc2o1 (single isomer, unassigned) [Compound 212, 6-{6-[3-(cyclopropylamino)pyrrolidin-1-yl]-1,5-naphthyridin-2-yl}-2-methyl-1,3-benzoxazol-5-ol] | < 100 nM |
| < 100 nM | < 100 nM | < 100 nM | < 100 nM | Cc1nc2c(C)c(O)c(-c3ccc4nc(N5CCC(NC6CCC6)C5)ccc4n3)cc2o1 (stereo not drawn) [Compound 235, 6-{6-[3-(cyclobutylamino)pyrrolidin-1-yl]-1,5-naphthyridin-2-yl}-2,4-dimethyl-1,3-benzoxazol-5-ol] | < 100 nM |
| < 100 nM | < 100 nM | < 100 nM | < 100 nM | Cc1nc2cc(O)c(-c3ccc4nc(C5CCNCC5)ccc4n3)cc2o1 [Compound 147, 2-methyl-6-[6-(piperidin-4-yl)-1,5-naphthyridin-2-yl]-1,3-benzoxazol-5-ol] | < 100 nM |
| < 100 nM | < 100 nM | < 100 nM | < 100 nM | Cc1c(O)c(-c2ccc3nc(C4CCNCC4)ccc3n2)cc2cn(C)nc12 [Compound 101, 2,7-dimethyl-5-[6-(piperidin-4-yl)-1,5-naphthyridin-2-yl]indazol-6-ol] | < 100 nM |
| > 10000 nM | > 10000 nM | 100 to 1000 nM | > 10000 nM | Cc1cn2cc(-c3ccc4nc(C5CCNCC5)ccc4n3)c(O)cc2n1 [Compound 149, 2-methyl-6-[6-(piperidin-4-yl)-1,5-naphthyridin-2-yl]imidazo[1,2-a]pyridin-7-ol] | > 10000 nM |
| > 10000 nM | > 10000 nM | > 10000 nM | > 10000 nM | COc1cc2nn(C)cc2cc1-c1ccc2c(F)c(C3CCNCC3)ccc2n1 [Compound 143, 5-fluoro-2-(6-methoxy-2-methylindazol-5-yl)-6-(piperidin-4-yl)quinoline] | > 10000 nM |
| < 100 nM | < 100 nM | < 100 nM | < 100 nM | Cc1nc2c(C)c(O)c(-c3ccc4nc(N5CC[C@@H](NC(C)(C)C)C5)ccc4n3)cc2o1 (single isomer, unassigned) [Compound 215, 6-{6-[3-(tert-butylamino)pyrrolidin-1-yl]-1,5-naphthyridin-2-yl}-2,4-dimethyl-1,3-benzoxazol-5-ol] | < 100 nM |
| < 100 nM | < 100 nM | < 100 nM | 100 to 1000 nM | CN[C@H]1CCN(c2ccc3nc(-c4cc5cn(C)nc5cc4O)ccc3n2)C1 [Compound 170, 2-methyl-5-{6-[(3S)-3-(methylamino)pyrrolidin-1-yl]-1,5-naphthyridin-2-yl}indazol-6-ol] | 100 to 1000 nM |
| 1000 to 10000 nM | 1000 to 10000 nM | 1000 to 10000 nM | 1000 to 10000 nM | Cn1cc2cc(-c3ccc4nc(C5CCNCC5)ccc4n3)ncc2n1 [Compound 200] | 1000 to 10000 nM |
| < 100 nM | < 100 nM | < 100 nM | 100 to 1000 nM | CCN[C@@H]1CCN(c2ccc3nc(-c4cc5cn(C)nc5cc4O)ccc3n2)C1 [Compound 180] | 100 to 1000 nM |
| < 100 nM | < 100 nM | < 100 nM | < 100 nM | Cn1cc2cc(-c3ccc4nc(N5CC[C@H](NC6(C)CC6)C5)ccc4n3)c(O)cc2n1 (single isomer, unassigned) [Compound 221, 2-methyl-5-{6-[(35)-3-[(1-methylcyclopropyl)amino]pyrrolidin-1-yl]-1,5-naphthyridin-2-yl}indazol-6-ol] | < 100 nM |
| > 10000 nM | > 10000 nM | > 10000 nM | > 10000 nM | COc1cc2nn(C)cc2cc1-c1ccc2cc(C3CCNCC3)c(F)cc2n1 [Compound 145, 7-fluoro-2-(6-methoxy-2-methylindazol-5-yl)-6-(piperidin-4-yl)quinoline] | > 10000 nM |
| 100 to 1000 nM | 100 to 1000 nM | 100 to 1000 nM | 100 to 1000 nM | Cn1cc2nc(-c3ccc4nc(C5CCNCC5)ccc4n3)ccc2n1 [Compound 199, 2-{2-methylpyrazolo[4,3-b]pyridin-5-yl}-6-(piperidin-4-yl)-1,5-naphthyridine] | 100 to 1000 nM |
| < 100 nM | < 100 nM | < 100 nM | < 100 nM | Cc1nc2c(C)c(O)c(-c3ccc4nc(N5CCC(NC6CCC6)C5)ccc4n3)cc2o1 (single isomer, unassigned) [Compound 237, 6-{6-[3-(cyclobutylamino)pyrrolidin-1-yl]-1,5-naphthyridin-2-yl}-2,4-dimethyl-1,3-benzoxazol-5-ol] | < 100 nM |
| > 10000 nM | > 10000 nM | 1000 to 10000 nM | > 10000 nM | COc1cc2ccncc2cc1-c1ccc2nc(N3CCC(NC(C)(C)C)C3)ccc2n1 (stereo not drawn) [Compound 161, N-tert-butyl-1-[6-(6-methoxyisoquinolin-7-yl)-1,5-naphthyridin-2-yl]pyrrolidin-3-amine] | > 10000 nM |
| < 100 nM | < 100 nM | < 100 nM | < 100 nM | Cn1cc2cc(-c3ccc4nc(N5CC[C@H](NC6(C)CC6)C5)ccc4n3)c(O)c(F)c2n1 (single isomer, unassigned) [Compound 222, 7-fluoro-2-methyl-5-{6-[(3 S)-3-[(1-methylcyclopropyl)amino]pyrrolidin-1-yl]-1,5-naphthyridin-2-yl}indazol-6-ol] | < 100 nM |
| 1000 to 10000 nM | 1000 to 10000 nM | 1000 to 10000 nM | 1000 to 10000 nM | Cn1cc2cc(-c3ccc4nc(C5CCNCC5)ccc4n3)c(F)cc2n1 [Compound 193, 2-(6-fluoro-2-methylindazol-5-yl)-6-(piperidin-4-yl)-1,5-naphthyridine] | 1000 to 10000 nM |
| > 10000 nM | > 10000 nM | 1000 to 10000 nM | > 10000 nM | Cn1cc2cc(-c3ccc4nc(N5CCC56CCNC6)ccc4n3)c(O)cc2n1 (stereo not drawn) [Compound 162] | > 10000 nM |
| > 10000 nM | > 10000 nM | > 10000 nM | > 10000 nM | Cn1cc2cc(-c3ccc4cc(C5CCNCC5)c(F)cc4n3)c(O)cc2n1 [Compound 144, 5-[7-fluoro-6-(piperidin-4-yl)quinolin-2-yl]-2-methylindazol-6-01] | > 10000 nM |
| < 100 nM | < 100 nM | < 100 nM | < 100 nM | Cc1nc2cc(O)c(-c3ccc4nc(N5CCC(NC(C)(C)C)C5)ccc4n3)cc2o1 (stereo not drawn) [Compound 175, 6-{6-[3-(tert-butylamino)pyrrolidin-1-yl]-1,5-naphthyridin-2-yl}-2-methyl-1,3-benzoxazol-5-ol] | < 100 nM |
| 100 to 1000 nM | 100 to 1000 nM | < 100 nM | 100 to 1000 nM | Cc1cn2cc(-c3ccc4nc(N5CCC(NC(C)(C)C)C5)ccc4n3)cc(C)c2n1 (stereo not drawn) [Compound 201] | 100 to 1000 nM |
| 1000 to 10000 nM | 1000 to 10000 nM | < 100 nM | 1000 to 10000 nM | CC1CN(c2ccc3nc(-c4cc5cn(C)nc5cc4O)ccc3n2)CCN1C (stereo not drawn) [Compound 118, 5-[6-(3,4-dimethylpiperazin-1-yl)-1,5-naphthyridin-2-yl]-2-methylindazol-6-ol] | 1000 to 10000 nM |
